According to ChEMBL document CHEMBL4619804, “Target-Based Identification and Optimization of 5-Indazol-5-yl Pyridones as Toll-like Receptor 7 and 8 Antagonists Using a Biochemical TLR8 Antagonist Competition Assay” (J Med Chem, 2020):

Legend:
Toll-like receptor 9 = molecular target: T1, Toll-like receptor 9 (Homo sapiens, UniProt Q9NR96); test: Antagonist activity at TLR9 in human PBMC assessed as inhibition of ODN2216-induced IFNalpha production preincubated for 30 mins followed by ODN2216 addition and measured after 20 hrs by alphaLISA; assay type: cell-based
T1 sequence (Q9NR96 whole entry): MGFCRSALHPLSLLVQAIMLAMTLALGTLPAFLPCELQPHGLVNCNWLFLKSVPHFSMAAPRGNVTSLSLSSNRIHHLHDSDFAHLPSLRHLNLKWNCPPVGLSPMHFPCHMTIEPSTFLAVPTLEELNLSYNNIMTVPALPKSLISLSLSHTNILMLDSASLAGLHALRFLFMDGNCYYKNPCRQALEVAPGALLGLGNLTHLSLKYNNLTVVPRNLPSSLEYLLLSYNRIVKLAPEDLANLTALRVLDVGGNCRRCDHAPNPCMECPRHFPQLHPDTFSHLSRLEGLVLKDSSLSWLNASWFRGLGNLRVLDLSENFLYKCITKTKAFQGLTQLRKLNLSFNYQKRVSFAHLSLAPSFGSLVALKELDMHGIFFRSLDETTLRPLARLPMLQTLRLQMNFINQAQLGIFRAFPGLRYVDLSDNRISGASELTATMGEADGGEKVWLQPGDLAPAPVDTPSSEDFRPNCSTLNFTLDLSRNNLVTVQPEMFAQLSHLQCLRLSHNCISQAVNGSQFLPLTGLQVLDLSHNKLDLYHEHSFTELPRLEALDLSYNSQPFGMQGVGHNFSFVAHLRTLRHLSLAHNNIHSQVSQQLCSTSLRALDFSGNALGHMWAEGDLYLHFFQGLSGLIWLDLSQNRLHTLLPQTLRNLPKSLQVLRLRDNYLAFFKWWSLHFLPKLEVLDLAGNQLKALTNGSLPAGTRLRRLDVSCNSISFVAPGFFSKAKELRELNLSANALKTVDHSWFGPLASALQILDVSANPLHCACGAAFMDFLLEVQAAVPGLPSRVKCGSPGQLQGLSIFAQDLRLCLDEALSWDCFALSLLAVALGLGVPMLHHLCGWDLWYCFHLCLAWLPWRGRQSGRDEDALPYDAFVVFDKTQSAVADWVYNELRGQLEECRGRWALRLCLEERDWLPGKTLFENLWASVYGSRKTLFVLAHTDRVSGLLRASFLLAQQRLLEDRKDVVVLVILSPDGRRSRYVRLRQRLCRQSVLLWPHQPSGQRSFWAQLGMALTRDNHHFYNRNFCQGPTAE

Toll-like receptor 7 = molecular target: T2, Toll-like receptor 7 (Mus musculus, UniProt P58681); test: Antagonist activity at TLR7 in mouse whole blood assessed as inhibition of DOTAP-ssRNA40 induced IFNalpha production preincubated for 30 mins followed by ssRNA40 addition measured after 20 hrs by ELISA; assay type: tissue-based
T2 sequence (P58681 whole entry): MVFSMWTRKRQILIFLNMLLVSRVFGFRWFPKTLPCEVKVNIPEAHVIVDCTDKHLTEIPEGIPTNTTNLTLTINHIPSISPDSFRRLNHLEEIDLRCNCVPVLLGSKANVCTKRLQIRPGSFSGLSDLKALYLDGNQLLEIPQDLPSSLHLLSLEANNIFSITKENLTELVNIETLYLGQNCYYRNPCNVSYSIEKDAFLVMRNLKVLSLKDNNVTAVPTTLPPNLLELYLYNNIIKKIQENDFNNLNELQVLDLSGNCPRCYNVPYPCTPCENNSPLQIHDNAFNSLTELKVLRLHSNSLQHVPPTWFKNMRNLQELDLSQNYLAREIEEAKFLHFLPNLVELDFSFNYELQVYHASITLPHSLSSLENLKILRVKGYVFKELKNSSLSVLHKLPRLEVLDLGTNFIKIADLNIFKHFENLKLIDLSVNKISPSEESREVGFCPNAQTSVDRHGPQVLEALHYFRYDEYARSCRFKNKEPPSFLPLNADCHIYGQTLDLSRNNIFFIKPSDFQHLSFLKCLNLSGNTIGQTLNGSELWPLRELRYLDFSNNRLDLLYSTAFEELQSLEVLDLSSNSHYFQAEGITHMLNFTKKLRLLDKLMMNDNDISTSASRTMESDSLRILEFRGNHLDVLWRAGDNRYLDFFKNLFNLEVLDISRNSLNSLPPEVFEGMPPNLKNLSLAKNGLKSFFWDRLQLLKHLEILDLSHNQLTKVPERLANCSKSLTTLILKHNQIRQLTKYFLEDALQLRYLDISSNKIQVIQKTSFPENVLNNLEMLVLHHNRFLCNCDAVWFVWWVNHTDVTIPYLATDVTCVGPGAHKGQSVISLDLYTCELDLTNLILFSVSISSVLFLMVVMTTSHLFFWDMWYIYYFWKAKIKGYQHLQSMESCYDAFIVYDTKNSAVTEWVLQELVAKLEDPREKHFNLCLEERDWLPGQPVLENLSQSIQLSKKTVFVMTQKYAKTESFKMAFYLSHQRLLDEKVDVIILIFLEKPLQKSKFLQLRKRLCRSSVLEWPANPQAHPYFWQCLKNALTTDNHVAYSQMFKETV

Toll-like receptor 5 = Toll-like receptor 5 (Homo sapiens, UniProt O60602); test: Antagonist activity at TLR5 in human PBMC assessed as inhibition of flagellin-induced TNFalpha production preincubated for 30 mins followed by flagellin addition and measured after 20 hrs by HTRF assay; assay type: cell-based
Toll-like receptor 5, sequence (O60602 whole entry): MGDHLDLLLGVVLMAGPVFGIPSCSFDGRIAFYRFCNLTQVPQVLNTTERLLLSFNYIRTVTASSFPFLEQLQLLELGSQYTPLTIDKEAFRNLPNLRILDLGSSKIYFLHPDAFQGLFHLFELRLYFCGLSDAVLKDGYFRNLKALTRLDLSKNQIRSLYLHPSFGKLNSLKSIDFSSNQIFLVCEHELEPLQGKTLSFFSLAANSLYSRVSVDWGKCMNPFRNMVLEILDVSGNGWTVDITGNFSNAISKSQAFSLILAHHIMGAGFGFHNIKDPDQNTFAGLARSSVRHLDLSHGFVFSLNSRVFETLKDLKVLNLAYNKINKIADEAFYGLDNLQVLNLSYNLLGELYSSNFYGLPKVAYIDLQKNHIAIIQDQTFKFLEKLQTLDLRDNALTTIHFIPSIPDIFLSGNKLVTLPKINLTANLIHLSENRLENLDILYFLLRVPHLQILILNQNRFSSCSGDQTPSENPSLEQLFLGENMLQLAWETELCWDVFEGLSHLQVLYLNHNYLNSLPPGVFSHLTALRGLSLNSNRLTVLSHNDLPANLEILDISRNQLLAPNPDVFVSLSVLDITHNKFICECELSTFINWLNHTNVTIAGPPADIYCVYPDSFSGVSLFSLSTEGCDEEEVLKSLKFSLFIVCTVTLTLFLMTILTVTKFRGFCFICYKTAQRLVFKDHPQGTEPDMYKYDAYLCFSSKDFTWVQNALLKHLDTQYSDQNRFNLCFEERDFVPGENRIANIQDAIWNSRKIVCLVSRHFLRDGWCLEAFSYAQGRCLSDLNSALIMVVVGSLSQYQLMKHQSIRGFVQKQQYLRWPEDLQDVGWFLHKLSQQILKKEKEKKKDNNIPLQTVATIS

IC50 (Toll-like receptor 9): > 5300 nM
IC50 (Toll-like receptor 7): 180 nM
IC50 (Toll-like receptor 5): > 6500 nM
Structure (SMILES): O=c1ccc(-c2cc(C(F)(F)F)c3nn([C@H]4CCNC[C@@H]4F)cc3c2)c2n1CCC2
